Assay results from the NIST ThermoML archive (doi:10.1021/acs.jced.6b00180).
± gives the expanded uncertainty stated by the source.

Columns and labels:
[1] = refractive index (Na D-line) (dimensionless); settings: 293.15 K; 101.33 kPa; Liquid; Standard Abbe refractometry
[2] = Liquid, Ebulliometric method (Recirculating still)
[3] = Boiling temperature at pressure P; settings: 101.33 kPa; Liquid; Ebulliometric method (Recirculating still)

## C=CC(=C)C [2-methyl-1,3-butadiene]
[1]
  refractive index: 1.4218 ± 0.0005
[2]; 336.35 K
  vapor or sublimation pressure: 250 ± 13 kPa

## CC=C(C)C [2-methyl-2-butene]
[1]
  refractive index: 1.3876 ± 0.0005
[2]; 341.15 K
  vapor or sublimation pressure: 250 ± 13 kPa

## CCC(C)C [2-methylbutane]
[1]
  refractive index: 1.3535 ± 0.0005
[2]; 330.05 K
  vapor or sublimation pressure: 250 ± 13 kPa

## CC(C)=O [acetone]
[3]
  Boiling temperature at pressure P: 56.2 ± 1 °C
[1]
  refractive index: 1.3586 ± 0.0005
[2]; 329.35 K
  vapor or sublimation pressure: 101.3 ± 5.1 kPa

## C1CCCC1 [cyclopentane]
[1]
  refractive index: 1.4064 ± 0.0005
[2]; 352.85 K
  vapor or sublimation pressure: 250 ± 13 kPa

## C1=CCCC1 [cyclopentene]
[1]
  refractive index: 1.4224 ± 0.0005
[2]; 347.35 K
  vapor or sublimation pressure: 250 ± 13 kPa

## CCO [ethanol]
[3]
  Boiling temperature at pressure P: 78.4 ± 1 °C
[1]
  refractive index: 1.3613 ± 0.0005
[2]; 351.55 K
  vapor or sublimation pressure: 101.3 ± 5.1 kPa

## CCCCCC [hexane]
[1]
  refractive index: 1.3748 ± 0.0005

## CO [methanol]
[3]
  Boiling temperature at pressure P: 64.7 ± 1 °C
[1]
  refractive index: 1.3286 ± 0.0005

## CCCCC [pentane]
[1]
  refractive index: 1.3578 ± 0.0005
[2]; 338.35 K
  vapor or sublimation pressure: 250 ± 13 kPa
